Reference: patent US20240318212A1, “PHOSPHORYLATION OF PHENOLIC PHYTOCHEMICALS BY TWO ENZYMES COUPLED SYSTEM” (National Taiwan University, priority 2023, published 2024)

Experiments:
ovariectomized rats = conditions: comparable to estradiol and raloxifene, surpassed genistein; cited from earlier work
[1] = versus parent genistein; cited from earlier work
[2] = versus parent genistein; cited from earlier work; remark: listed apart in the source
ErPPK = assay: Effect of polyphenol derivatives on ErPPK activity; assay type: biochemical, unclassified Erysipelotrichaceae bacterium; conditions: 0.25 mM
Description: FIG. 4 illustrates the effect of polyphenol derivatives on ErPPK. Data are mean SD (n=3), with significance indicated by p<0.05 using t-test. n.s., non-significance.
Considering the known inhibitory effect of aromatic phosphonates on PPK2 enzymes, we investigated the impact of polyphenols and polyphenol phosphates on ErPPK activity to evaluate their integration into a one-pot bi-enzymatic system. LUT was selected as the polyphenol target, based on its incomplete conversion in microbial systems due to its toxic nature.

For O=c1c(-c2ccc(O)cc2)coc2cc(OP(=O)(O)O)cc(O)c12 [Genistein 7-O-phosphate], the osteoprotective effects (ovariectomized rats) is given as “improved”, the solubility [1] is given as “improved” and the oral bioavailability [2] is given as “improved”.

With O=c1cc(-c2ccc(O)c(O)c2)oc2cc(O)cc(O)c12 [LUT, luteolin] the “inhibitory effect on ErPPK activity” value (ErPPK) was “no significant inhibitory effect”.
